From patent publication US6218102A, “Synthetic peptides and mixtures thereof for detecting HIV antibodies” (priority 1988, dated 2001)
Where two headings read alike, the source gives them in different places.

Tests used:
[1] = tested on: antibodies of patients infected by the AIDS viruses; settings: cited from earlier work
Antibodies to HIV-1 [2] = test: ELISA with peptide or peptide mixture as antigen, identifying HIV-1 positive sera; type: binding, human; settings: single peptide, known HIV-1 positive sera, Table 3
Experimental: According to this test a peptide or a peptide mixture of the present invention is adsorbed onto the wells of a microtiter plate. The wells are then treated with sera to be tested. After washing, anti-human IgG labeled with peroxidase is added to the wells. The determination of the peroxidase is performed with a corresponding substrate, e.g. with o-phenylene diamine. Also in this procedure the peroxidase can be exchanged by another label, e.g. by a radioactive or fluorescence label.
(§1) Each well of the microtiter plate is saturated with 100 μl of a solution containing a peptide or mixture of peptides (5 μg/ml) and left overnight. The wells are emptied and washed twice with a washing buffer (Tris, 0.043M; NaCl, 0.5M; thimerosal, 0.01% w/v; Tween 20, 0.05% v/v; pH7.4). The wells are then saturated with 0.35 ml of washing buffer for 1 hr. at 37° C. and washed once with the same buffer. Serum samples to be analyzed are diluted with specimen buffer (washing buffer plus casein, 0.05% w/v). The wells are rinsed with washing buffer prior to the addition of the diluted serum sample (0.1 ml). These are left to incubate for 1 hr. at room temperature. The wells are then emptied, washed twice rapidly and then once for two minutes with washing buffer. […] The wells are then emptied and washed twice rapidly with washing buffer and then five times in which the buffer was in contact with the well 2 minutes per washing. The substrate solution (3,3', 5,5'-tetramethylbenzidine, 8 mg per ml of DMSO) is diluted with 100 volumes 0.1M citrate-acetate buffer, pH 5.6 containing 0.1% v/v of 30% H2 O2 and added to each well (0.1 ml per well). After 10 minutes the contents of each well is treated with 0.1 ml 2N H2 SO4 and the optical density read at 450 nm. All determinations are done in duplicate.

Antibodies to HIV-1 [3] = test: ELISA, relative performance of cyclic and non-cyclic HIV-1 peptides at serum dilutions (optical density); type: binding, human
Experimental: Table 4 is provided to illustrate the sensitivity of cyclic versus non cyclic peptides in the ELISA test by comparing the results of some sera at various dilutions.
as §1

[4] = serum specimen 87V103, dilution 1/50
[5] = serum specimen 1428, dilution 1/50
[6] = serum specimen M-5, dilution 1/50
[7] = serum specimen M-5, dilution 1/100
[8] = serum specimen M-5, dilution 1/200
[9] = serum specimen M-5, dilution 1/400
[10] = serum specimen M-5, dilution 1/800
[11] = serum specimen M-7, dilution 1/50
[12] = serum specimen M-7, dilution 1/100
[13] = serum specimen M-7, dilution 1/200
[14] = serum specimen M-7, dilution 1/400
[15] = serum specimen M-7, dilution 1/800
[16] = serum specimen M-8, dilution 1/50
[17] = serum specimen M-8, dilution 1/100
[18] = serum specimen M-8, dilution 1/200
[19] = serum specimen M-8, dilution 1/400
[20] = serum specimen M-8, dilution 1/800
[21] = serum specimen M-16, dilution 1/50
[22] = serum specimen M-16, dilution 1/100
[23] = serum specimen M-16, dilution 1/200
[24] = serum specimen M-16, dilution 1/400
[25] = serum specimen M-16, dilution 1/800

For “12-amino acid sequence (600-611): 12-amino acid sequence 600-611 from gp 41 (HIV-1), Gnann et al.”, the positive sera detected ([1]; Center for Disease Control, Atlanta) is listed as 78 out of 79, the positive sera detected ([1]; Gnann et al., Journal of Virology 1987) is listed as 22 out of 22 and the HIV-1-infected patients reactive ([1]; J. Infect. Dis. 156, 1987, patients from the United States) is listed as 131 out of 132.
In the case of “NH2 -GCSGKLICTTAVPWNAS-COOH (H-GCSGKLICTTAVPWNAS-OH; cysteine pairing not given here) [Peptide 77, gp 41 604-620]”, the “% Positive Sera Correctly Identified” value (Antibodies to HIV-1 [2]) is reported as 100%, the ELISA optical density (Antibodies to HIV-1 [3]; [4]) is reported as 0.000 OPTICAL DENSITY UNITS and the ELISA optical density (Antibodies to HIV-1 [3]; [5]) is reported as 0.926 OPTICAL DENSITY UNITS. The ELISA optical density (Antibodies to HIV-1 [3]; [6]) was 1.719 OPTICAL DENSITY UNITS, the ELISA optical density (Antibodies to HIV-1 [3]; [7]) was 1.459 OPTICAL DENSITY UNITS and the ELISA optical density (Antibodies to HIV-1 [3]; [8]) was 1.248 OPTICAL DENSITY UNITS. For the same substance, the ELISA optical density (Antibodies to HIV-1 [3]; [9]) was 0.959 OPTICAL DENSITY UNITS, the ELISA optical density (Antibodies to HIV-1 [3]; [10]) was 0.057 OPTICAL DENSITY UNITS and the ELISA optical density (Antibodies to HIV-1 [3]; [11]) was 0.142 OPTICAL DENSITY UNITS. The ELISA optical density (Antibodies to HIV-1 [3]; [12]) was 0.025 OPTICAL DENSITY UNITS, the ELISA optical density (Antibodies to HIV-1 [3]; [13]) was 0.007 OPTICAL DENSITY UNITS and the ELISA optical density (Antibodies to HIV-1 [3]; [14]) was 0.001 OPTICAL DENSITY UNITS. For the same substance, the ELISA optical density (Antibodies to HIV-1 [3]; [15]) was 0.000 OPTICAL DENSITY UNITS, the ELISA optical density (Antibodies to HIV-1 [3]; [16]) was 0.795 OPTICAL DENSITY UNITS and the ELISA optical density (Antibodies to HIV-1 [3]; [17]) was 0.507 OPTICAL DENSITY UNITS. It also gave an ELISA optical density (Antibodies to HIV-1 [3]; [18]) of 0.376 OPTICAL DENSITY UNITS, an ELISA optical density (Antibodies to HIV-1 [3]; [19]) of 0.209 OPTICAL DENSITY UNITS and an ELISA optical density (Antibodies to HIV-1 [3]; [20]) of 0.062 OPTICAL DENSITY UNITS. The ELISA optical density (Antibodies to HIV-1 [3]; [21]) was 1.219 OPTICAL DENSITY UNITS, the ELISA optical density (Antibodies to HIV-1 [3]; [22]) was 0.962 OPTICAL DENSITY UNITS and the ELISA optical density (Antibodies to HIV-1 [3]; [23]) was 0.613 OPTICAL DENSITY UNITS. The ELISA optical density (Antibodies to HIV-1 [3]; [24]) was 0.301 OPTICAL DENSITY UNITS and the ELISA optical density (Antibodies to HIV-1 [3]; [25]) was 0.205 OPTICAL DENSITY UNITS.
For “NH2 -RILAVERYLKDQQLLGIWGCSGKLICTTAVPWNAS-COOH [Peptide 87]”, the “% Positive Sera Correctly Identified” value (Antibodies to HIV-1 [2]) was 99%, the ELISA optical density (Antibodies to HIV-1 [3]; [4]) was 0.005 OPTICAL DENSITY UNITS and the ELISA optical density (Antibodies to HIV-1 [3]; [5]) was 1.463 OPTICAL DENSITY UNITS. For the same substance, the ELISA optical density (Antibodies to HIV-1 [3]; [6]) was 1.809 OPTICAL DENSITY UNITS, the ELISA optical density (Antibodies to HIV-1 [3]; [7]) was 1.219 OPTICAL DENSITY UNITS and the ELISA optical density (Antibodies to HIV-1 [3]; [8]) was 1.513 OPTICAL DENSITY UNITS. For the same substance, the ELISA optical density (Antibodies to HIV-1 [3]; [9]) was 1.418 OPTICAL DENSITY UNITS, the ELISA optical density (Antibodies to HIV-1 [3]; [10]) was 1.012 OPTICAL DENSITY UNITS and the ELISA optical density (Antibodies to HIV-1 [3]; [11]) was 1.504 OPTICAL DENSITY UNITS. The ELISA optical density (Antibodies to HIV-1 [3]; [12]) was 1.329 OPTICAL DENSITY UNITS, the ELISA optical density (Antibodies to HIV-1 [3]; [13]) was 1.184 OPTICAL DENSITY UNITS and the ELISA optical density (Antibodies to HIV-1 [3]; [14]) was 0.923 OPTICAL DENSITY UNITS. The ELISA optical density (Antibodies to HIV-1 [3]; [15]) was 0.571 OPTICAL DENSITY UNITS, the ELISA optical density (Antibodies to HIV-1 [3]; [16]) was 1.390 OPTICAL DENSITY UNITS and the ELISA optical density (Antibodies to HIV-1 [3]; [17]) was 1.087 OPTICAL DENSITY UNITS. The ELISA optical density (Antibodies to HIV-1 [3]; [18]) was 0.883 OPTICAL DENSITY UNITS, the ELISA optical density (Antibodies to HIV-1 [3]; [19]) was 0.593 OPTICAL DENSITY UNITS and the ELISA optical density (Antibodies to HIV-1 [3]; [20]) was 0.240 OPTICAL DENSITY UNITS. It also gave an ELISA optical density (Antibodies to HIV-1 [3]; [21]) of 1.846 OPTICAL DENSITY UNITS, an ELISA optical density (Antibodies to HIV-1 [3]; [22]) of 1.784 OPTICAL DENSITY UNITS and an ELISA optical density (Antibodies to HIV-1 [3]; [23]) of 1.740 OPTICAL DENSITY UNITS. The ELISA optical density (Antibodies to HIV-1 [3]; [24]) was 1.634 OPTICAL DENSITY UNITS and the ELISA optical density (Antibodies to HIV-1 [3]; [25]) was 1.537 OPTICAL DENSITY UNITS.
For SGKLIC, the “immunoreactivity with HIV-1 positive sera” value ([1]; Gnann et al., 22 HIV-1 positive sera) is listed as “not immunoreactive with any of the 22 HIV-1 positive sera tested”.
For “SGKLICTTAVPWNAS [short synthetic peptide covering residues 606 to 620 of gp 41 (HIV-1), Ser. No. 120,027]”, the specificity ([1]; U.S. Ser. No. 120,027, seronegative specimens correctly identified) is given as 63/63 and the sensitivity ([1]; U.S. Ser. No. 120,027, six of 57 confirmed positive not detected) is given as 89%.
